Data set [1] is described as follows: Storage stability comparison in a thermostatic chamber (HPLC purity, XRD crystal form). It is filed as physicochemical. To be noted: for Purity: HPLC. An excerpt: Crystal A, crystal B and amorphous form of (R)-3-[2-(2-amino-5-trifluoromethoxybenzamido)acetamido]-1(6-methylindol-3-ylmethyl)pyrrolidine in the amount of 1.50 g, 1.50 g and 0.30 g, respectively were each placed in a transparent glass vial. They were simply covered by filter paper and kept in a thermostatic chamber. Samples were serially extracted for HPLC analysis and the appearance was also observed. Transition of crystal form was monitored by XRD analysis at the point of 163 hrs (only for crystals A and B) and 15 days (for all the samples) from the start. The “time” means storage time. The “temperature” is the preset temperature of the thermostatic chamber used for the storage, which was jumped up at 163 hrs from the start.

Data set [2] can be described thus: Transition of crystal B into crystal A in ethanol/water suspension (HPLC, XRD). To be noted: crystal A versus crystal B. It is filed as physicochemical. As for the experimental part:
Five grams of (R)-3-[2-(2-amino-5-trifluoromethoxybenzamido)acetamido]-1-(6-methylindol-3-ylmethyl)pyrrolidine was suspended in 232 mL of ethanol/water (1.22/1), and the suspension was stirred for 3 hours in an oil bath at 20° C. The precipitated crystals were filtered off and dried at 50° C. under reduced pressure. Yield Amount: 4.25 g (yield: 85%)
HPLC pattern and XRD diagram were measured to confirm that the resulting crystal was crystal A of (R)-3-[2-(2-amino-5-trifluoromethoxybenzamido)acetamido]-1-(6-methylindol-3-ylmethyl)pyrrolidine.

[3] abbreviates: storage 163 hrs at 40 °C (temperature then raised 40 to 60 °C).
The mark [4] stands for this setting: storage 192 hrs, 60 °C from 163 hrs.
Where [5] appears, read: storage 240 hrs, 60 °C from 163 hrs.
The mark [6] stands for this setting: storage 15 days, 60 °C from 163 hrs.
[7] abbreviates: storage time: initial value, 40 °C, glass vial covered by filter paper.

Entries after “also recorded” stand apart in the source; their conditions may differ.

Consider `Cc1ccc2c(CN3CC[C@@H](NC(=O)CNC(=O)c4cc(OC(F)(F)F)ccc4N)C3)c[nH]c2c1` [Crystal B, (R)-3-[2-(2-amino-5-trifluoromethoxybenzamido)acetamido]-1-(6-methylindol-3-ylmethyl)pyrrolidine], for which the Purity in data set [1] (storage 24 hrs, 40 °C) amounted to 99.22%; in data set [1] (storage 71 hrs, 40 °C), 99.31%; in data set [1] (storage 144 hrs, 40 °C), 99.22%; in data set [1] (setting [4]) it was 99.28%; in data set [1] (setting [5]), 99.19%; in data set [1] (setting [6]), 99.28%. In data set [1] (setting [7]), the Purity is 99.20%. Further, the “Crystal form (XRD)” value in data set [1] (setting [3]) and in data set [1] (setting [6]) was “Crystal B” each time.

Regarding `Cc1ccc2c(CN3CC[C@@H](NC(=O)CNC(=O)c4cc(OC(F)(F)F)ccc4N)C3)c[nH]c2c1` [amorphous form, (R)-3-[2-(2-amino-5-trifluoromethoxybenzamido)acetamido]-1-(6-methylindol-3-ylmethyl)pyrrolidine], the “Storage stability (degradation), in words” value in data set [1] (conclusion from Table 5) was “degradation of amorphous form; also recorded: less storage stability compared to the crystal forms”. The Purity in data set [1] (storage 24 hrs, 40 °C) is 97.78%; in data set [1] (storage 71 hrs, 40 °C) it was 97.55%; in data set [1] (storage 144 hrs, 40 °C), 97.25%; in data set [1] (setting [4]), 95.88%; in data set [1] (setting [5]), 94.33%; in data set [1] (setting [6]) it was 91.14%. The compound further registered a Purity in data set [1] (setting [7]) of 98.03%. In addition, the “Crystal form (XRD)” value in data set [1] (setting [6]) was “amorphous”.

Regarding `Cc1ccc2c(CN3CC[C@@H](NC(=O)CNC(=O)c4cc(OC(F)(F)F)ccc4N)C3)c[nH]c2c1` [Crystal A, (R)-3-[2-(2-amino-5-trifluoromethoxybenzamido)acetamido]-1-(6-methylindol-3-ylmethyl)pyrrolidine], the “Relative stability of the two crystal forms” value in data set [2] was “higher than that of crystal B”. For the same compound, the Purity in data set [1] (storage 24 hrs, 40 °C) was 98.89%; in data set [1] (storage 71 hrs, 40 °C) it was 98.88%; in data set [1] (storage 144 hrs, 40 °C), 98.80%; in data set [1] (setting [4]), 98.82%; in data set [1] (setting [5]) it was 98.82%; in data set [1] (setting [6]) it was 98.75%. Moreover, the Purity in data set [1] (setting [7]) was 98.79%. The “Crystal form (XRD)” value in data set [1] (setting [3]) and in data set [1] (setting [6]) was “Crystal A” each time.

Source of the values: US20090076120A1, “Crystal of Aminopyrrolidine Derivative and Production Method Thereof” (TEIJIN PHARMA LIMITED, priority 2005, published 2009).
